According to patent US20240325760A1, “METHODS FOR DETECTING AND PREVENTING ALZHEIMER'S DISEASE AND MILD COGNITIVE IMPAIRMENT” (RAMOT AT TEL-AVIV UNIVERSITY LTD., priority 2021, published 2024):
Where “and” joins values, the source holds several entries; their conditions need not be identical. Equal values may be shown once. Entries after “also recorded” stand apart in the source; their conditions may differ.

What was measured:
[1] = tested on: nRE-CA1 synapses; assay: nRE-CA1 synaptic transmission in APP/PS1 mice expressing hM4D(Gi)-mCherry; type: in vivo, mouse; details: data not shown
[2] = tested on: anesthetized APP/PS1 mice; assay: LFP recording of epileptiform high-voltage CA1 spikes under anesthesia; type: in vivo
Experimental: For intracerebroventricular (ICV) ainjections, a small hole was drilled in the skull above the left lateral ventricle (0.7 mm posterior, 1.2 mm lateral to bregma), and a 5 mm guide cannula was slowly inserted into the ventricle and fixed to the skull by dental cement (C&B Metabond, Parkell). The guide cannula was sealed with a 5 mm sterile metal bar to prevent CSF leakage and possible infections. 1-2 weeks after the surgery, the mice received ICV injections using a 10 μl syringe (Hamilton). The mice were injected with 1 μl containing 27 μg of teriflunomide (TERI), dissolved in DMSO or vehicle (1 μl of DMSO) with speed of 0.15 μl/min (Nano Jet stereotaxic syringe pump).
LFP/fEPSP recordings. Small diameter holes were drilled in the skull at the position of the recording and stimulating electrodes. […] Ground electrode was screwed to the skull above the cerebellum. Test stimuli of 50-100 μA were delivered to the SC at 0.06 Hz to verify the proper location of the electrodes and to estimate the stability of the signal. The electrodes were firmly fixed to the skull by dental cement (C&B Metabond, Parkell) and dental acrylic. Operated mice recovered in their home cage for at least a week following electrodes implantation. For evoked field excitatory postsynaptic potential (fEPSP) recordings in CA3-CA1 synapses in awake mice (FIGS. 1F-1G), mice were habituated for a few days to the experimental device that was composed from a running wheel and metal bar in which the mice were head fixed into throughout the experiment with a screw. Following habituation, the mice were head fixed to the experimental device, and CA3-CA1 fEPSP measurements were taken 30 minutes after.
Ca^2+ imaging and LFP recording in anesthetized mice. For Ca^2+ imaging and LFP recording sessions during anesthesia, mice were placed in an induction chamber connected to isoflurane vaporizer (Isotec 5), gas flow rate was turned on to 0.8 LPM (litre per minute) and the vaporizer was set at 5% isoflurane. […] Respiration and heart rate were monitored and analyzed by the physiological monitoring system. […] Temperature was also maintained by the device at 37° C. throughout the procedure.
Detection of pathological spikes in fAD models. High-voltage pathological spikes were detected by setting a threshold of 10 z-scores above and below the mean voltage during the suppression epochs of the recording and accepted only if their peak-to-peak value within 30 ms was greater than 10 z-scores. A dead-time of 50 ms was set to assure the same spike was not counted twice. Subsequently, all spikes were manually inspected and approved.

[3] = tested on: cultured hippocampal neurons (hippocampal networks ex vivo); assay: Mean firing rate (MFR) of hippocampal cultures on multi-electrode arrays; type: cell-based, mouse; details: for network MFR after isoflurane application: isoflurane 1%, 24 hour
Experimental: Multi-electrode array (MEA). Postnatal hippocampal cultures were plated on MEA plates containing 120 titanium nitride (TiN) electrodes, in addition to 4 internal reference and 4 ground electrodes (Styr et al., 2019). Each electrode has a diameter of 30 μm and electrodes are arranged in a 12×12 grid (sparing 6 electrodes in each corner), spaced 100-200 μm apart on average (Multi Channel Systems, 120MEA200/30iR-Ti). Data acquisition was done in 3-weeks-old cultures using a standard MEA2100-Systems with a hardware filter cut-off of 3.3 kHz and sampling rate of 10 kHz per electrode. Recordings were carried out under constant 37° C. and 5% CO2 levels.
Data analysis: Raw data was filtered, offline, at 200 Hz using a Butterworth high-pass filter. Spikes were then detected, offline, using MC_Rack software (Multi Channel Systems) based on a fixed threshold set to between 5-6 standard deviations from mean. Twenty minutes of each hour (that were previously shown to reliably represent the MFR of the entire hour, were used for analysis to reduce processing time and analyzed using custom-written scripts in MATLAB (Mathworks) as previously described (Slomowitz et al., 2015). Channels with unstable (>30% change of MFR) baseline recordings during 3-4 hours prior to a perturbation were excluded from the analysis.

[4] = tested on: CA3-CA1 synaptic connections in hippocampal slices; assay: Dose-response of TERI on fEPSP amplitude in acute hippocampal slices; type: cell-based, mouse
Experimental: Electrophysiology in slices. Acute hippocampal slices (coronal, 400 μm) were prepared from WT and APP/PS1 mice. Slices were transferred to a submerged recovery chamber at 32° C. containing oxygenated (95% O2 and 5% CO2) artificial cerebrospinal fluid (ACSF) for 1 h before the experiment. The ACSF contained, in mM: NaCl, 125; KCl, 2.5; CaCl2, 1.2; MgCl2, 1.2; NaHCO3, 25; NaH2PO4, 1.25; glucose, 25. fEPSPs were recorded in acute hippocampal slices with a glass pipette containing Tyrode solution (1-2 MΩ) from synapses in the CA1 using a MultiClamp700B amplifier (Molecular Devices). Stimulation of the Shaffer Collateral (SC) pathway was delivered through a glass suction electrode (10-20 μm tip) filled with Tyrode. Data were analyzed using pClamp10 (Molecular Devices).

[5] = tested on: CA1 neuronal populations of WT and APP/PS1 mice; assay: Ca2+ imaging of CA1 population activity under anesthesia; type: in vivo, mouse
[6] = tested on: APP/PS1 mice; assay: Spatial working memory, delta-maze alternation test after general anesthesia; type: in vivo, mouse; details: 4-5-month-old APP/PS1 mice; isoflurane inhalation 1.5%, 3 hour; 10, 20 and 60 sec delays

C[N+]1([O-])CCN(C2=Nc3cc(Cl)ccc3Nc3ccccc32)CC1 [CNO]
nRE-CA1 synaptic transmission [1]: suppressed | decrease in the rate of epileptiform CA1 spikes vs vehicle ([2]; i.p. 5 mg/kg, anesthetized APP/PS1 mice expressing hM4D(Gi)-mCherry in nRE-CA1 synapses): ~53%

C/C(O)=C(\C#N)C(=O)Nc1ccc(C(F)(F)F)cc1 [TERI, (2Z)-2-cyano-3-hydroxy-N-[4-(trifluoromethyl)phenyl]but-2-enamide]
negative regulation of MFR set points by TERI ([3]; APP/PS1 networks ex vivo, data not shown): preserved | IC50 ([4]; Mus musculus, hippocampal slices of APP/PS1 mice): 19.1 µM | IC50 ([4]; Mus musculus, hippocampal slices of WT mice): 17.6 µM | IC50 ([4]; hippocampal slices of APP/PS1 mice): 19.2 ± 1 µM | reduction in the frequency of high-voltage CA1 spikes vs baseline ([2]; ICV 27 μg in 1 μl, anesthetized APP/PS1 mice): ~50% and 50.7±7.2% | frequency of high-voltage spikes after TERI ICV injection ([2]; ICV 27 μg in 1 μl, baseline 7.6±1.4 per min, n=9 anesthetized APP/PS1 mice): 3.8±0.95 per min

NC1=N[C@H](O)[C@H]2[C@H]3O[C@]4(O)O[C@@H]([C@@H](O)[C@@]2(N1)[C@@H]4O)[C@]3(O)CO [TTX, tetrodotoxin]
rate of epileptiform CA1 spikes vs baseline ([2]; mouse, in vivo): profound decrease; also recorded: reduction

NCC(CC(=O)O)c1ccc(Cl)cc1 (stereo not shown) [baclofen]
MFR homeostatic response to chronic inactivity ([3]; baclofen 10 μM, WT and APP/PS1 networks, first day of perturbation): homeostatically compensated

COc1ccc(-c2ccc(=N)n(CCCC(=O)O)n2)cc1 [gabazine]
MFR renormalization following 2 days of gabazine application ([3]; 30 μM, APP/PS1 neurons): disrupted | population firing rate on gabazine application (acute) ([3]; 30 μM, WT networks): fast and pronounced increase | MFR following 2 days of gabazine application ([3]; 30 μM, WT neurons): renormalized to the baseline level

FC(F)OC(Cl)C(F)(F)F (stereo not shown) [isoflurane]
network MFR after isoflurane application ([3]; APP/PS1 cultures): 112.5±8.7 % of baseline | network MFR after isoflurane application ([3]; WT cultures): 42.0±0.9 % of baseline | CA1 activity under anesthesia ([5]; APP/PS1 mice): maintained constant | suppression of total CA1 activity ([5]; WT mice, deep anesthesia (1.5% isoflurane)): ~87% | suppression of total CA1 activity ([5]; WT mice, moderate anesthesia (1% isoflurane)): ~57% | choice accuracy in delta maze following anesthesia [6]: decrease in choice accuracy | epileptiform high-voltage spikes in CA1 ([2]; 4-5 months old APP/PS1 mice under general anesthesia (1.5% isoflurane)): 3.22±0.51 per min

Cc1cccc(C(C)c2cnc[nH]2)c1C (stereo not shown) [medetomidine]
CA1 activity under anesthesia ([5]; APP/PS1 mice): much lower level of suppression | CA1 activity under anesthesia ([5]; WT mice, data not shown): pronounced inhibition of CA1 activity
